Experiment [1] deals with Stromal cell-derived factor 1 (Homo sapiens, UniProt P48061). Briefly: Inhibition of SDF-1 alpha induced cell migration in human SUP-T1 cells pre-incubated for 30 mins followed by SDF-1 alpha addition measured after 3 hrs by cell Titer-96 reagent based analysis.
The target of experiment [2] is C-X-C chemokine receptor type 4 (Homo sapiens, UniProt P61073). Briefly: Binding affinity to CXCR4 (unknown origin) expressed in CHO cells incubated for 40 mins by competitive binding assay method.

Molecules are shown by their SMILES.

The values that follow come from BindingDB's records for PubMed 32492596 (Tsinghua University, 2020).

Sequence of C-X-C chemokine receptor type 4 (P61073 whole entry): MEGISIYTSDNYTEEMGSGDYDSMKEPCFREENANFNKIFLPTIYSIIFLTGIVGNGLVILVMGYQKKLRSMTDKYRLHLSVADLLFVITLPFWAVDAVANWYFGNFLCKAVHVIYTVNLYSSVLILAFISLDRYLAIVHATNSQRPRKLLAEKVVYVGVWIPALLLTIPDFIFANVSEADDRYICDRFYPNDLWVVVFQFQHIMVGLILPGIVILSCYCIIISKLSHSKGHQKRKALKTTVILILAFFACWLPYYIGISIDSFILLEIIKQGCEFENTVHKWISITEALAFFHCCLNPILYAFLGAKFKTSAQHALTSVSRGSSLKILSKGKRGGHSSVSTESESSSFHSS
Sequence of Stromal cell-derived factor 1 (P48061 whole entry): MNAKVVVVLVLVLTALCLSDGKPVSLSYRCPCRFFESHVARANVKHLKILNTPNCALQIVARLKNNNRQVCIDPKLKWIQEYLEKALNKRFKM

A word on the IC50: it is the concentration that inhibits the measured activity by half. Higher therefore signals weaker potency in that assay. In the case of `CCOC(=O)C1CNc2c(OC)cc(Cc3cnc(N)nc3N)c(OC)c2C1` (stereo not given), the IC50 in experiment [1] came out at 621 nM. The compound `Cc1ccnc2c(N)cc(Cc3cnc(N)nc3N)cc12` returned an IC50 in experiment [2] of 68 nM. Regarding `COc1cc(Cc2cnc(N)nc2N)cc2c1N(CCOC(C)=O)CCC2C` (stereo not given), the IC50 in experiment [2] came out at 68 nM. Compound `Nc1ncc(Cc2ccc3ncccc3c2)c(N)n1` registered an IC50 in experiment [2] of 119 nM. `COc1cc(Cc2cnc(N)nc2N)cc2c(C)cc(C)nc12`: the IC50 in experiment [2] was 122 nM.
